pEC50: −log10 of the molar value.
Experiment: Inhibition of glucocorticoid-mediated human MMP1 expression in PMA stimulated A549 cells assessed as MMP1 protein level by ELISA

`C[C@H]1C[C@H]2[C@@H]3CCC4=CC(=O)C=C[C@]4(C)[C@@]3(F)[C@@H](O)C[C@]2(C)[C@@]1(OC(=O)NC(C)(C)CC(C)(C)C)C(=O)CO` [(8S,9R,10S,11S,13S,14S,16S,17R)-9-fluoro-11-hydroxy-17-(2-hydroxyacetyl)-10,13,16-trimethyl-3-oxo-6,7,8,9,10,11,12,13,14,15,16,17-dodecahydro-3H-cyclopenta[a]phenanthren-17-yl 2,4,4-trimethylpentan-2-ylcarbamate] showed a pEC50 of 7.63.
Work on `C[C@H]1C[C@H]2[C@@H]3CCC4=CC(=O)C=C[C@]4(C)[C@@]3(F)[C@@H](O)C[C@]2(C)[C@@]1(OC(=O)NCCC(C)(C)C)C(=O)CO` [(8S,9R,10S,11S,13S,14S,16S,17R)-9-fluoro-11-hydroxy-17-(2-hydroxyacetyl)-10,13,16-trimethyl-3-oxo-6,7,8,9,10,11,12,13,14,15,16,17-dodecahydro-3H-cyclopenta[a]phenanthren-17-yl 3,3-dimethylbutylcarbamate] yielded a pEC50 of 7.68.
For `C[C@H]1C[C@H]2[C@@H]3CCC4=CC(=O)C=C[C@]4(C)[C@@]3(F)[C@@H](O)C[C@]2(C)[C@@]1(OC(=O)NC1CCCCC1)C(=O)CO` [(8S,9R,10S,11S,13S,14S,16S,17R)-9-fluoro-11-hydroxy-17-(2-hydroxyacetyl)-10,13,16-trimethyl-3-oxo-6,7,8,9,10,11,12,13,14,15,16,17-dodecahydro-3H-cyclopenta[a]phenanthren-17-yl cyclohexylcarbamate], the pEC50 was 8.89.
In the case of `C[C@H]1C[C@H]2[C@@H]3CCC4=CC(=O)C=C[C@]4(C)[C@@]3(F)[C@@H](O)C[C@]2(C)[C@@]1(OC(=O)NCC(C)(C)C)C(=O)CO` [(8S,9R,10S,11S,13S,14S,16S,17R)-9-fluoro-11-hydroxy-17-(2-hydroxyacetyl)-10,13,16-trimethyl-3-oxo-6,7,8,9,10,11,12,13,14,15,16,17-dodecahydro-3H-cyclopenta[a]phenanthren-17-yl neopentylcarbamate], the pEC50 was 10.00.
`CCCCCNC(=O)O[C@]1(C(=O)CO)[C@@H](C)C[C@H]2[C@@H]3CCC4=CC(=O)C=C[C@]4(C)[C@@]3(F)[C@@H](O)C[C@@]21C` [(8S,9R,10S,11S,13S,14S,16S,17R)-9-fluoro-11-hydroxy-17-(2-hydroxyacetyl)-10,13,16-trimethyl-3-oxo-6,7,8,9,10,11,12,13,14,15,16,17-dodecahydro-3H-cyclopenta[a]phenanthren-17-yl pentylcarbamate] showed a pEC50 of 7.74.
Work on `CCC(C)NC(=O)O[C@]1(C(=O)CO)[C@@H](C)C[C@H]2[C@@H]3CCC4=CC(=O)C=C[C@]4(C)[C@@]3(F)[C@@H](O)C[C@@]21C` (stereo partly drawn) [(8S,9R,10S,11S,13S,14S,16S,17R)-9-fluoro-11-hydroxy-17-(2-hydroxyacetyl)-10,13,16-trimethyl-3-oxo-6,7,8,9,10,11,12,13,14,15,16,17-dodecahydro-3H-cyclopenta[a]phenanthren-17-yl sec-butylcarbamate] yielded a pEC50 of 9.10.
In the case of `CCC(C)(C)NC(=O)O[C@]1(C(=O)CO)[C@@H](C)C[C@H]2[C@@H]3CCC4=CC(=O)C=C[C@]4(C)[C@@]3(F)[C@@H](O)C[C@@]21C` [(8S,9R,10S,11S,13S,14S,16S,17R)-9-fluoro-11-hydroxy-17-(2-hydroxyacetyl)-10,13,16-trimethyl-3-oxo-6,7,8,9,10,11,12,13,14,15,16,17-dodecahydro-3H-cyclopenta[a]phenanthren-17-yl tert-pentylcarbamate], the pEC50 was 7.27.
For `COC(=O)[C@H](C)NC(=O)O[C@]1(C(=O)CO)[C@@H](C)C[C@H]2[C@@H]3CCC4=CC(=O)C=C[C@]4(C)[C@@]3(F)[C@@H](O)C[C@@]21C` [(11beta,16beta)-9-Fluoro-11,21-dihydroxy-16-methyl-3,20-dioxopregna-1,4-dien-17-yl (1S)-1-(methoxycarbonyl)-ethylcarbamate], the pEC50 was 7.08.
Molecule `C[C@H](NC(=O)O[C@]1(C(=O)CO)[C@@H](C)C[C@H]2[C@@H]3CCC4=CC(=O)C=C[C@]4(C)[C@@]3(F)[C@@H](O)C[C@@]21C)c1ccccc1` [(11beta,16beta)-9-Fluoro-11,21-dihydroxy-16-methyl-3,20-dioxopregna-1,4-dien-17-yl (1S)-1-phenylethylcarbamate] has a pEC50 of 8.31.
With `C=CCNC(=O)O[C@]1(C(=O)CO)[C@@H](C)C[C@H]2[C@@H]3CCC4=CC(=O)C=C[C@]4(C)[C@@]3(F)[C@@H](O)C[C@@]21C` [(11beta,16beta)-9-Fluoro-11,21-dihydroxy-16-methyl-3,20-dioxopregna-1,4-dien-17-yl allylcarbamate] the pEC50 was 7.41.
Work on `CCCCNC(=O)O[C@]1(C(=O)CO)[C@@H](C)C[C@H]2[C@@H]3CCC4=CC(=O)C=C[C@]4(C)[C@@]3(F)[C@@H](O)C[C@@]21C` [(11beta,16beta)-9-Fluoro-11,21-dihydroxy-16-methyl-3,20-dioxopregna-1,4-dien-17-yl butylcarbamate] yielded a pEC50 of 7.66.
With `C[C@H]1C[C@H]2[C@@H]3CCC4=CC(=O)C=C[C@]4(C)[C@@]3(F)[C@@H](O)C[C@]2(C)[C@@]1(OC(=O)NC1CCCC1)C(=O)CO` [(11beta,16beta)-9-Fluoro-11,21-dihydroxy-16-methyl-3,20-dioxopregna-1,4-dien-17-yl cyclopentylcarbamate] the pEC50 was 8.55.
Work on `CCNC(=O)O[C@]1(C(=O)CO)[C@@H](C)C[C@H]2[C@@H]3CCC4=CC(=O)C=C[C@]4(C)[C@@]3(F)[C@@H](O)C[C@@]21C` [(11beta,16beta)-9-Fluoro-11,21-dihydroxy-16-methyl-3,20-dioxopregna-1,4-dien-17-yl ethylcarbamate] yielded a pEC50 of 7.80.
Molecule `CC(C)NC(=O)O[C@]1(C(=O)CO)[C@@H](C)C[C@H]2[C@@H]3CCC4=CC(=O)C=C[C@]4(C)[C@@]3(F)[C@@H](O)C[C@@]21C` [(11beta,16beta)-9-Fluoro-11,21-dihydroxy-16-methyl-3,20-dioxopregna-1,4-dien-17-yl isopropylcarbamate] has a pEC50 of 8.72.
With `CCCNC(=O)O[C@]1(C(=O)CO)[C@@H](C)C[C@H]2[C@@H]3CCC4=CC(=O)C=C[C@]4(C)[C@@]3(F)[C@@H](O)C[C@@]21C` [(11beta,16beta)-9-Fluoro-11,21-dihydroxy-16-methyl-3,20-dioxopregna-1,4-dien-17-yl propylcarbamate] the pEC50 was 7.73.
For `C[C@H]1C[C@H]2[C@@H]3CCC4=CC(=O)C=C[C@]4(C)[C@@]3(F)[C@@H](O)C[C@]2(C)[C@@]1(OC(=O)NC(C)(C)C)C(=O)CO` [(11beta,16beta)-9-Fluoro-11,21-dihydroxy-16-methyl-3,20-dioxopregna-1,4-dien-17-yl tert-butylcarbamate], the pEC50 was 8.80.
With `C[C@H]1C[C@H]2[C@@H]3CCC4=CC(=O)C=C[C@]4(C)[C@@]3(F)[C@@H](O)C[C@]2(C)[C@@]1(OC(=O)NC12CC3CC(CC(C3)C1)C2)C(=O)CO` [Adamantan-1-yl-carbamic acid (8S,9R,10S,11S,13S,14S,16S,17R)-9-fluoro-11-hydroxy-17-(2-hydroxy-acetyl)-10,13,16-trimethyl-3-oxo-6,7,8,9,10,11,12,13,14,15,16,17-dodecahydro-3H-cyclopenta[a]phenanthren-17-yl este] the pEC50 was 8.47.

Reference: BindingDB's records for doi:10.1016/j.bmc.2008.07.037 (Merck Research Laboratories, 2008)
